Measurements reported in US8324390B2, “Tetrazole-substituted anthranilamides as pesticides” (Bayer CropScience AG, priority 2008, dated 2012).
Read-outs that look alike come from different tables or passages of the source.

Tests used:
[1] = tested on: green peach aphid (Myzus persicae); experiment: Myzus test (MYZUPE spray treatment); type: in vivo; conditions: Myzus persicae, foliar, read-out: effect in % (aphids killed)
Text: Solvent: 78 parts by weight of acetone
(§1) Solvent: 78.0 parts by weight of acetone

[2] = log P determination by HPLC (EEC Directive 79/831 Annex V.A8); type: physicochemical
Description: The measurements were carried out using an Agilent 1100 LC system with a 50*4.6 Zorbax Eclipse C18 1.8 μm column (oven temperature 55° C., flow rate 2.0 ml/min).
The following mobile phases were used:
Mobile phase A: acetonitrile+1000 μl of formic acid/l
Mobile phase B: Millipore water+900 μl of formic acid/l

[3] = tested on: caterpillars of the armyworm (Spodoptera frugiperda); experiment: Spodoptera frugiperda test (SPODFR spray treatment); type: in vivo; conditions: Spodoptera frugiperda, foliar, read-out: effect in % (caterpillars killed)
Text: as §1

[4] = tested on: larvae of the mustard beetle (Phaedon cochleariae); experiment: Phaedon test (PHAECO spray treatment); conditions: Phaedon cochleariae, in Brassica rapa, foliar, read-out: effect in % (beetle larvae killed)
[5] = application rate 100 g/ha, Chinese cabbage leaf discs
[6] = reversed-phase HPLC, Zorbax Eclipse C18 column, by HPLC according to EEC Directive 79/831 Annex V.A8, read-out: log P
[7] = application rate 100 g/ha, maize leaf discs

| Compound | pest or weed control at 100 g/ha ([1]; in Brassica rapa) | chromatographic logP ([2]; log P) | pest or weed control at 100 g/ha ([3]; in Zea mays) | pest or weed control at 100 g/ha [4] | pest or weed control at 100 g/ha [1, 5] | chromatographic logP [2, 6] | pest or weed control at 100 g/ha [3, 7] |
| --- | --- | --- | --- | --- | --- | --- | --- |
| Cc1cc(Br)cc(C(=O)NC(C)(C)C)c1NC(=O)c1cc(Cn2nnc(C(F)(F)C(F)(F)F)n2)nn1-c1ncccc1Cl [Example 219] | ≥ 80% | 4.36 | ≥ 80% | ≥ 80% | – | – | – |
| Cc1cc(F)cc(C(=O)NC(C)(C)C)c1NC(=O)c1cc(Cn2nnc(C(F)(F)C(F)(F)F)n2)nn1-c1ncccc1Cl [Example 221] | ≥ 80% | 3.88 | ≥ 80% | ≥ 80% | – | – | – |
| Cc1cc(Cl)cc(C(=O)NC(C)(C)C)c1NC(=O)c1cc(Cn2nnc(C(F)(F)F)n2)nn1-c1ncccc1C(F)(F)F [Example 224] | – | – | – | ≥ 80% | ≥ 80% | 4 | ≥ 80% |
| Cc1cc(C#N)cc(C(N)=O)c1NC(=O)c1cc(Cn2nnc(C(F)(F)F)n2)nn1-c1ncccc1C(F)(F)F [Example 236] | – | – | – | ≥ 80% | ≥ 80% | 2.67 | ≥ 80% |
| Cc1cc(Cl)cc(C(N)=O)c1NC(=O)c1cc(Cn2nnc(C(F)(F)F)n2)nn1-c1ncccc1C(F)(F)F [Example 238] | – | – | – | ≥ 80% | ≥ 80% | 2.97 | ≥ 80% |
| Cc1cc(I)cc(C(=O)NC(C)(C)C)c1NC(=O)c1cc(Cn2nnc(C(F)(F)F)n2)nn1-c1ncccc1C(F)(F)F [Example 242] | – | – | – | ≥ 80% | ≥ 80% | 4.25 | ≥ 80% |
| CNC(=O)c1cc(Cl)cc(C)c1NC(=O)c1cc(Cn2nnc(C(F)F)n2)nn1-c1ncccc1Cl [Example 255] | ≥ 80% | 2.46 | ≥ 80% | ≥ 80% | – | – | – |
| Cc1cc(Cl)cc(C(=O)NCC2CC2)c1NC(=O)c1cc(Cn2nnc(C(F)F)n2)nn1-c1ncccc1Cl [Example 259] | ≥ 80% | 3.04 | ≥ 80% | ≥ 80% | – | – | – |
| Cc1cc(C#N)cc(C(=O)NC(C)C2CC2)c1NC(=O)c1cc(Cn2nnc(C(F)F)n2)nn1-c1ncccc1Cl (centres unmarked) [Example 263] | ≥ 80% | 2.86 | ≥ 80% | ≥ 80% | – | – | – |
| Cc1cc(C#N)cc(C(=O)NC2CC2)c1NC(=O)c1cc(Cn2nnc(C(F)F)n2)nn1-c1ncccc1Cl [Example 264] | ≥ 80% | 2.39 | ≥ 80% | ≥ 80% | – | – | – |
| CCNC(=O)c1cc(C#N)cc(C)c1NC(=O)c1cc(Cn2nnc(C(F)F)n2)nn1-c1ncccc1Cl [Example 265] | ≥ 80% | 2.36 | ≥ 80% | ≥ 80% | – | – | – |
| Cc1cc(C#N)cc(C(=O)NC(C)C)c1NC(=O)c1cc(Cn2nnc(C(F)F)n2)nn1-c1ncccc1Cl [Example 266] | ≥ 80% | 2.58 | ≥ 80% | ≥ 80% | – | – | – |
| Cc1cc(C#N)cc(C(=O)NCC2CC2)c1NC(=O)c1cc(Cn2nnc(C(F)F)n2)nn1-c1ncccc1Cl [Example 269] | ≥ 80% | 2.66 | ≥ 80% | ≥ 80% | – | – | – |
| Cc1cc(C#N)cc(C(=O)NC2CCC2)c1NC(=O)c1cc(Cn2nnc(C(F)F)n2)nn1-c1ncccc1Cl [Example 270] | ≥ 80% | 2.7 | ≥ 80% | ≥ 80% | – | – | – |
| Cc1cc(C#N)cc(C(=O)NCC#N)c1NC(=O)c1cc(Cn2nnc(C(F)F)n2)nn1-c1ncccc1Cl [Example 271] | ≥ 80% | 2.19 | ≥ 80% | ≥ 80% | – | – | – |
| Cc1cc(I)cc(C(N)=O)c1NC(=O)c1cc(Cn2nnc(C(F)F)n2)nn1-c1ncccc1Cl [Example 272] | ≥ 80% | 2.53 | ≥ 80% | ≥ 80% | – | – | – |
| CNC(=O)c1cc(I)cc(C)c1NC(=O)c1cc(Cn2nnc(C(F)F)n2)nn1-c1ncccc1Cl [Example 273] | ≥ 80% | 2.73 | ≥ 80% | ≥ 80% | – | – | – |
